The test system of assay [1] is human immunodeficiency virus type 1 (HIV-1). As to the kind of experiment: Inhibitory activity against HIV (EC50), cell-based luciferase reporter assay. From the text: […]. Experimental procedures were essentially as described by Connor et al. in Journal of Virology (1996), 70: 5306-5311 (Characterization of the functional properties of env genes from long-term survivors of human immunodeficiency virus type 1 infection), and Popik et al. in Journal of Virology (2002), 76: 4709-4722 (Human immunodeficiency virus type 1 uses lipid raft-colocalized CD4 and chemokine receptors for productive entry into CD4^+ T cells). It should be particularly appreciated that the virus contains two introduced mutations in the RT gene (K103N and Y181C, created by PCR mutagenesis) that render the virus highly resistant to current non-nucleoside HIV-1 drugs. Virus stocks were generated by cotransfection of plasmid DNA encoding VSV-G with vector pNL4-3Env(−)Luc(+) into 293T cells. Sixty-four hours after transfection, virus-containing medium was collected by centrifugation and stored frozen at −80° C.
HeLa cells were infected with the VSV-G pseudotyped virus in the presence of screening compounds in a 384-well microtiter plate format. Forty-eight hours after initial infection, lysis buffer and Luciferase Assay Reagent (Promega) was added to the cells and luciferase activity was determined by counting the resultant luminescence using a LJL luminometer. Since the luciferase gene is carried in the virus genome, its expression level directly reflects the virus replication level in the presence of a compound.
To evaluate the activity of the compounds against wild type HIV-1, the HeLa-JC53 cell line that expresses high levels of CD4 and CCR5 (see e.g., Platt et al. in Journal of Virology (1998), 72: 2855-2864: Effect of CCR5 and CD4 cell surface concentrations on infection by macrophagetropic isolates of human immunodeficiency virus type 1) was modified by isolation of a stable cell line that expresses luciferase under the control of the HIV-1 promoter (long terminal repeat, i.e., LTR). HIV-1 infection of this cell line stimulates the transcription of luciferase from the HIV-1 promoter and the luciferase gene expression level is proportional to the level of virus replication (Harrington et al. in Journal of Virology Methods (2000), 88: 111-115: Direct detection of infection of HIV-1 in blood using a centrifugation-indicator cell assay; and Roos et al. in Virology (2000), 273: 307-315: LuSIV cells: a reporter cell line for the detection and quantitation of a single cycle of HIV and SIV replication). Procedures for virus infection, compound testing and luciferase activity determination were the same as for the VSV-G pseudotyped HIV-1.

The target of assay [2] is T1, wild-type HIV RT (Human immunodeficiency virus type 1 group M subtype B, UniProt P03366).
T1 construct: IC50 is indicated in microM for wild-type HIV RT
As to the kind of experiment: IC50 for wild-type HIV RT. Format: biochemical.

[3] abbreviates: Table 1, inhibitory activity against HIV, read-out: EC50.

Read-outs that look alike come from different tables or passages of the source.

What is called EC50 is the concentration needed to bring the measured effect to its halfway point. Take `Cc1ccc(NC(=O)CSc2nnc(C)n2-c2ccccc2)cc1C` [compound 30]: the EC50 in assay [1] (setting [3]) is > 100 µM.

For the compound `Cc1ccc(-n2c(C)nnc2SCC(=O)Nc2ccc(C)c(Cl)c2)cc1` [compound 39], the EC50 in assay [1] (setting [3]) is > 100 µM.

For the compound `Cc1nnc(SCC(=O)Nc2ccccc2C(F)(F)F)n1-c1ccccc1Cl` [compound 23], in assay [1] (setting [3]), the EC50 is > 100 µM.

Regarding `Cc1ccc(NC(=O)CSc2nnc(C)n2-c2ccccc2)cc1` [compound 47], the EC50 in assay [1] (setting [3]) is > 100 µM.

Usually IC50 stands for the concentration needed to halve the response being measured. High values mean lower potency, low ones higher potency. Take `Cc1ccc(NC(=O)CSc2nnc(-c3ccncc3)n2-c2ccccc2Cl)c(Br)c1` [compound 46]: in assay [1] (Human immunodeficiency virus 1), the EC50 was > 100 µM. In assay [2] (Table 1), the IC50 is > 100 µM.

For `O=C(CSc1nnc(-c2ccc(Cl)cc2)n1-c1ccccc1)Nc1ccccn1` [compound 25], the EC50 in assay [1] (setting [3]) was > 100 µM.

As for `Cc1ccc(NC(=O)CSc2nnc(-c3ccccc3C)n2-c2ccccc2)c(Br)c1` [compound 52], the EC50 in assay [1] (Human immunodeficiency virus 1) was > 100 µM. The compound further registered an IC50 in assay [2] (Table 1) of 10 to 100 µM.

With `O=C(CSc1nnc(-c2ccncc2)n1-c1ccccc1)Nc1ccccc1I` [compound 24], the EC50 in assay [1] (setting [3]) is > 100 µM.

In the case of `Cc1nnc(SCC(=O)Nc2ccccc2)n1-c1ccccc1` [compound 49], the EC50 in assay [1] (setting [3]) is > 100 µM.

In the case of `Cc1ccc(NC(=O)C(C)Sc2nnc(C)n2-c2ccc(C)cc2)cc1` (stereo not drawn) [compound 45], the EC50 in assay [1] (setting [3]) is > 100 µM. The compound also came in with an IC50 in assay [2] (Table 1, numeric value) of 36.3 µM.

For the compound `Cc1ccc(-c2nnc(SCC(=O)Nc3ccccc3Br)n2C)cc1` [compound 37], the EC50 in assay [1] (setting [3]) was > 100 µM.

For `Cn1c(SCC(=O)Nc2ccccc2)nnc1-c1ccc(Br)cc1` [compound 27], the EC50 in assay [1] (setting [3]) is > 100 µM.

`Cc1ccccc1NC(=O)CSc1nnc(-c2ccc(Cl)cc2)[nH]1` [compound 26]: the EC50 in assay [1] (setting [3]) was 10 to 100 µM.

On to `Cc1cccc(NC(=O)CSc2nnc(C)n2-c2ccccc2)c1` [compound 40], for which the EC50 in assay [1] (setting [3]) was > 100 µM. The same compound yielded an IC50 in assay [2] (Table 1) of 10 to 100 µM.

Turning to `Cc1ccc(NC(=O)CSc2nnc(Cc3ccccc3)n2C)c(Br)c1` [compound 29], the EC50 in assay [1] (setting [3]) is > 100 µM. This compound also yielded an IC50 in assay [2] (Table 1) of 10 to 100 µM.

For the compound `CC(=O)c1ccc(NC(=O)CSc2nnc(C)n2-c2ccc(C)cc2)cc1` [compound 41], the EC50 in assay [1] (Human immunodeficiency virus 1) is > 100 µM. The same compound returned an IC50 in assay [2] (Table 1) of 10 to 100 µM.

For the compound `Cc1ccc(-n2c(SCC(=O)Nc3ccc(C)cc3Br)nnc2-c2ccncc2)cc1` [compound 36], in assay [1] (setting [3]), the EC50 was > 100 µM.

Consider `Cc1ccc(NC(=O)CSc2nnc(COc3ccc(C#N)cc3)n2-c2ccccc2)c(Br)c1` [compound 44], for which the EC50 in assay [1] (Human immunodeficiency virus 1) was > 100 µM. The same compound showed an IC50 in assay [2] (Table 1) of 10 to 100 µM.

Consider `Cc1cc(C)c(NC(=O)CSc2nnc(C)n2-c2ccccc2)c(C)c1` [compound 51], for which the EC50 in assay [1] (setting [3]) is > 100 µM.

As to `Cc1ccc(NCc2nnc(SCC(=O)Nc3ccc(C)cc3Br)n2-c2ccccc2)cc1` [compound 33], the concentration for a half-maximal effect (EC50) in assay [1] (Human immunodeficiency virus 1) was > 100 µM. This compound yielded an IC50 in assay [2] (Table 1) of 10 to 100 µM.

For `O=C(CSc1nnc(C2CCCCC2)n1-c1ccccc1)Nc1ccccc1Br` [compound 34], in assay [1] (Human immunodeficiency virus 1), the EC50 is > 100 µM. The IC50 in assay [2] (Table 1) was 10 to 100 µM.

The record behind these values is patent publication US20080249131A1, “NON-NUCLEOSIDE REVERSE TRANSCRIPTASE INHIBITORS” (priority 2002, published 2008).
